Laboratory results published in PubChem BioAssay (NCI).
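The compound was tested at five concentrations on cells cultured in 96-well plates, with a 48-hour exposure period. TGI denotes the concentration required for complete inhibition of growth.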

What was measured:
Test in all cases: growth of human tumour cells (NCI), 48 h
BT-549 breast = tested on: BT-549 breast
SK-OV-3 ovarian = tested on: SK-OV-3 ovarian
OVCAR-8 ovarian = tested on: OVCAR-8 ovarian
MDA-MB-231 breast = tested on: MDA-MB-231 breast
UACC-257 melanoma = tested on: UACC-257 melanoma
HCC-2998 colon = tested on: HCC-2998 colon
SF-295 CNS = tested on: SF-295 CNS
IGROV1 ovarian = tested on: IGROV1 ovarian
HOP-92 NSCLC = tested on: HOP-92 NSCLC
T-47D breast = tested on: T-47D breast
HCT-15 colon = tested on: HCT-15 colon
MDA-N = tested on: MDA-N
NCI-H226 lung = tested on: NCI-H226 lung
SNB-75 CNS = tested on: SNB-75 CNS
MALME-3M melanoma = tested on: MALME-3M melanoma
SK-MEL-28 melanoma = tested on: SK-MEL-28 melanoma
EKVX NSCLC = tested on: EKVX NSCLC
SF-268 CNS = tested on: SF-268 CNS
SK-MEL-5 melanoma = tested on: SK-MEL-5 melanoma
NCI/ADR-RES ovarian = tested on: NCI/ADR-RES ovarian
A549 NSCLC = tested on: A549 NSCLC
SNB-19 CNS = tested on: SNB-19 CNS
SK-MEL-2 melanoma = tested on: SK-MEL-2 melanoma
M14 melanoma = tested on: M14 melanoma
NCI-H522 lung = tested on: NCI-H522 lung
OVCAR-4 ovarian = tested on: OVCAR-4 ovarian
LOX IMVI melanoma = tested on: LOX IMVI melanoma
COLO 205 colon = tested on: COLO 205 colon
MOLT-4 leukemia = tested on: MOLT-4 leukemia
UO-31 renal = tested on: UO-31 renal
U251 CNS = tested on: U251 CNS
KM12 colon = tested on: KM12 colon
TK-10 renal = tested on: TK-10 renal
HT29 colon = tested on: HT29 colon
HOP-62 NSCLC = tested on: HOP-62 NSCLC
RXF 393 renal = tested on: RXF 393 renal
UACC-62 melanoma = tested on: UACC-62 melanoma
NCI-H460 lung = tested on: NCI-H460 lung
MDA-MB-435 = tested on: MDA-MB-435
CAKI-1 renal = tested on: CAKI-1 renal
RPMI-8226 leukemia = tested on: RPMI-8226 leukemia
SW-620 colon = tested on: SW-620 colon
K-562 leukemia = tested on: K-562 leukemia
PC-3 prostate = tested on: PC-3 prostate
786-0 renal = tested on: 786-0 renal
HCT-116 colon = tested on: HCT-116 colon
DU-145 prostate = tested on: DU-145 prostate
OVCAR-5 ovarian = tested on: OVCAR-5 ovarian
HS 578T breast = tested on: HS 578T breast
SN12C renal = tested on: SN12C renal
CCRF-CEM leukemia = tested on: CCRF-CEM leukemia
A498 renal = tested on: A498 renal
OVCAR-3 ovarian = tested on: OVCAR-3 ovarian
ACHN renal = tested on: ACHN renal
NCI-H23 lung = tested on: NCI-H23 lung
MCF7 breast = tested on: MCF7 breast
SF-539 CNS = tested on: SF-539 CNS
HL-60(TB) leukemia = tested on: HL-60(TB) leukemia

CC(=O)O[C@H]1C[C@@H](OC(C)=O)[C@@](C)(O)[C@@H]2[C@@H](OC(C)=O)[C@@]3(O)[C@H](/C=C(/CCl)[C@H]4O[C@H]4[C@@H](OC(C)=O)[C@@]12C)OC(=O)[C@@H]3C
TGI (BT-549 breast): > 25 µM
TGI (SK-OV-3 ovarian): > 25 µM
TGI (OVCAR-8 ovarian): > 25 µM
TGI (MDA-MB-231 breast): > 25 µM
TGI (UACC-257 melanoma): > 25 µM
TGI (HCC-2998 colon): > 25 µM
TGI (SF-295 CNS): > 25 µM
TGI (IGROV1 ovarian): > 25 µM
TGI (HOP-92 NSCLC): > 25 µM
TGI (T-47D breast): > 25 µM
TGI (HCT-15 colon): > 25 µM
TGI (MDA-N): > 25 µM
TGI (NCI-H226 lung): > 25 µM
TGI (SNB-75 CNS): > 25 µM
TGI (MALME-3M melanoma): > 25 µM
TGI (SK-MEL-28 melanoma): > 25 µM
TGI (EKVX NSCLC): > 25 µM
TGI (SF-268 CNS): > 25 µM
TGI (SK-MEL-5 melanoma): > 25 µM
TGI (NCI/ADR-RES ovarian): > 25 µM
TGI (A549 NSCLC): > 25 µM
TGI (SNB-19 CNS): > 25 µM
TGI (SK-MEL-2 melanoma): > 25 µM
TGI (M14 melanoma): > 25 µM
TGI (NCI-H522 lung): > 25 µM
TGI (OVCAR-4 ovarian): > 25 µM
TGI (LOX IMVI melanoma): > 25 µM
TGI (COLO 205 colon): > 25 µM
TGI (MOLT-4 leukemia): > 25 µM
TGI (UO-31 renal): > 25 µM
TGI (U251 CNS): > 25 µM
TGI (KM12 colon): > 25 µM
TGI (TK-10 renal): > 25 µM
TGI (HT29 colon): > 25 µM
TGI (HOP-62 NSCLC): > 25 µM
TGI (RXF 393 renal): > 25 µM
TGI (UACC-62 melanoma): > 25 µM
TGI (NCI-H460 lung): > 25 µM
TGI (MDA-MB-435): > 25 µM
TGI (CAKI-1 renal): > 25 µM
TGI (RPMI-8226 leukemia): > 25 µM
TGI (SW-620 colon): > 25 µM
TGI (K-562 leukemia): > 25 µM
TGI (PC-3 prostate): > 25 µM
TGI (786-0 renal): > 25 µM
TGI (HCT-116 colon): > 25 µM
TGI (DU-145 prostate): > 25 µM
TGI (OVCAR-5 ovarian): > 25 µM
TGI (HS 578T breast): > 25 µM
TGI (SN12C renal): > 25 µM
TGI (CCRF-CEM leukemia): > 25 µM
TGI (A498 renal): > 25 µM
TGI (OVCAR-3 ovarian): > 25 µM
TGI (ACHN renal): > 25 µM
TGI (NCI-H23 lung): > 25 µM

O=c1[nH]c(=S)[nH]c2c(C3OC(CO)C(O)C3O)nsc12 (centres undefined)
TGI (BT-549 breast): > 100 µM
TGI (SK-OV-3 ovarian): > 100 µM
TGI (OVCAR-8 ovarian): > 100 µM
TGI (UACC-257 melanoma): > 100 µM
TGI (HCC-2998 colon): > 100 µM
TGI (SF-295 CNS): > 100 µM
TGI (IGROV1 ovarian): > 100 µM
TGI (HOP-92 NSCLC): > 100 µM
TGI (T-47D breast): > 100 µM
TGI (HCT-15 colon): > 100 µM
TGI (MDA-N): > 100 µM
TGI (NCI-H226 lung): > 100 µM
TGI (SNB-75 CNS): > 100 µM
TGI (MALME-3M melanoma): > 100 µM
TGI (SK-MEL-28 melanoma): > 100 µM
TGI (EKVX NSCLC): > 100 µM
TGI (SF-268 CNS): > 100 µM
TGI (SK-MEL-5 melanoma): > 100 µM
TGI (NCI/ADR-RES ovarian): > 100 µM
TGI (MCF7 breast): > 100 µM
TGI (A549 NSCLC): > 100 µM
TGI (SK-MEL-2 melanoma): > 100 µM
TGI (M14 melanoma): > 100 µM
TGI (SF-539 CNS): > 100 µM
TGI (OVCAR-4 ovarian): > 100 µM
TGI (LOX IMVI melanoma): > 100 µM
TGI (COLO 205 colon): > 100 µM
TGI (MOLT-4 leukemia): > 100 µM
TGI (U251 CNS): > 100 µM
TGI (TK-10 renal): > 100 µM
TGI (HT29 colon): > 100 µM
TGI (HOP-62 NSCLC): > 100 µM
TGI (RXF 393 renal): > 100 µM
TGI (UACC-62 melanoma): > 100 µM
TGI (NCI-H460 lung): > 100 µM
TGI (MDA-MB-435): > 100 µM
TGI (CAKI-1 renal): > 100 µM
TGI (SW-620 colon): > 100 µM
TGI (K-562 leukemia): > 100 µM
TGI (PC-3 prostate): > 100 µM
TGI (HCT-116 colon): > 100 µM
TGI (DU-145 prostate): > 100 µM
TGI (HL-60(TB) leukemia): > 100 µM
TGI (OVCAR-5 ovarian): > 100 µM
TGI (HS 578T breast): > 100 µM
TGI (SN12C renal): > 100 µM
TGI (CCRF-CEM leukemia): > 100 µM
TGI (A498 renal): > 100 µM
TGI (OVCAR-3 ovarian): > 100 µM
